Experimental data reported in patent US11331299B2, “Medicinal use of serrulatane diterpenes” (The University of Sydney, priority 2016, dated 2022).

Columns and labels:
Test in all cases: biochemical
Assay type in all cases: binding
[1] = target: receptors (Bioprint panel) (Homo sapiens, UniProt O43193); settings: motilin(h) (agonist radioligand); 10 μM; read-out: % Inhibition of Control Specific Binding
[2] = target: receptors (Bioprint panel) (Homo sapiens, UniProt P07550); settings: […] beta 2 (h) (agonist radioligand); 10 μM; read-out: % Inhibition of Control Specific Binding
[3] = target: receptors (Bioprint panel) (Homo sapiens, UniProt P10275); settings: 10 μM
Chain of receptors (Bioprint panel) (Homo sapiens, UniProt P10275) (P10275 whole entry T878A, form open): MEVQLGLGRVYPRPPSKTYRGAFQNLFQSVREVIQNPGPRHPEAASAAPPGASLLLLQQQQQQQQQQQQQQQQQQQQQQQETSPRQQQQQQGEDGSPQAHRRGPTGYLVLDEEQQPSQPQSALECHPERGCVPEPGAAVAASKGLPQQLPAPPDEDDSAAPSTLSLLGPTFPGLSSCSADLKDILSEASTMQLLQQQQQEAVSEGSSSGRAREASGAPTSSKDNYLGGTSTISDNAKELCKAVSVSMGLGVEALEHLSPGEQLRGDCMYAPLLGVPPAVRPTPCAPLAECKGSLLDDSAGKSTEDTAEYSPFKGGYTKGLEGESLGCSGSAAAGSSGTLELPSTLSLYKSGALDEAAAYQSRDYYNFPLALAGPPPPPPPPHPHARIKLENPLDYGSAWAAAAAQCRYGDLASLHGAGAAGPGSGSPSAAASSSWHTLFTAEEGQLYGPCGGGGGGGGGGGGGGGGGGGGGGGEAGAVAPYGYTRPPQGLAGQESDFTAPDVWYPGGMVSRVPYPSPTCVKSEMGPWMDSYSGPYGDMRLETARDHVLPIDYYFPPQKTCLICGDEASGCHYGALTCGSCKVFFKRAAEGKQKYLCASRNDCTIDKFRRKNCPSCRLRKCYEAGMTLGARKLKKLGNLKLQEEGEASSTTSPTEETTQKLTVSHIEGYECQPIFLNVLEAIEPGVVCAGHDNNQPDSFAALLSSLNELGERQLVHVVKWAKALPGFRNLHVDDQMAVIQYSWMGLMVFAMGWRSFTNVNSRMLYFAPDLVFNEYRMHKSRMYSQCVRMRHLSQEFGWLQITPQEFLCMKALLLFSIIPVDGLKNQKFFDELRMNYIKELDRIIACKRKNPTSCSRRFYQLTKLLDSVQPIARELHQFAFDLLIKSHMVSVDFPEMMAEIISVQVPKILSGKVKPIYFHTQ

[4] = target: receptors (Bioprint panel) (Homo sapiens, UniProt P13945); settings: Adrenergic beta3; 10 μM; read-out: % Inhibition of Control Specific Binding
[5] = target: receptors (Bioprint panel) (Homo sapiens, UniProt P21554); settings: CANNABINOID CB1 (h) (agonist radioligand); 10 μM; read-out: % Inhibition of Control Specific Binding
[6] = target: receptors (Bioprint panel) (Homo sapiens, UniProt P25101); settings: […] (h) (agonist radioligand); 10 μM; read-out: % Inhibition of Control Specific Binding
Chain of receptors (Bioprint panel) (Homo sapiens, UniProt P25101) (P25101 21-427): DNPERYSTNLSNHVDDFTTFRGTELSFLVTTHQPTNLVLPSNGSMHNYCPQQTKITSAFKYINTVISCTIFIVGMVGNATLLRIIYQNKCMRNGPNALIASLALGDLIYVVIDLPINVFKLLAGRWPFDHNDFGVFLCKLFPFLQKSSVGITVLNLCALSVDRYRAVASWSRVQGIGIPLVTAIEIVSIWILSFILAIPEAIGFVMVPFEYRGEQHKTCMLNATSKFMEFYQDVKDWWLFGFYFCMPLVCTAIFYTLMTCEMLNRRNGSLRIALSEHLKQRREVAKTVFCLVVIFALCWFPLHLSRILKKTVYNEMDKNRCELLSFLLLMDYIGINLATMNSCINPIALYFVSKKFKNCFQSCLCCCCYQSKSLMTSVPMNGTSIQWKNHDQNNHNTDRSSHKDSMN

[7] = target: receptors (Bioprint panel) (Homo sapiens, UniProt P25929); settings: NE[…] Y1 (h) (agonist radioligand); 10 μM; read-out: % Inhibition of Control Specific Binding
Chain of receptors (Bioprint panel) (Homo sapiens, UniProt P25929) (P25929 whole entry): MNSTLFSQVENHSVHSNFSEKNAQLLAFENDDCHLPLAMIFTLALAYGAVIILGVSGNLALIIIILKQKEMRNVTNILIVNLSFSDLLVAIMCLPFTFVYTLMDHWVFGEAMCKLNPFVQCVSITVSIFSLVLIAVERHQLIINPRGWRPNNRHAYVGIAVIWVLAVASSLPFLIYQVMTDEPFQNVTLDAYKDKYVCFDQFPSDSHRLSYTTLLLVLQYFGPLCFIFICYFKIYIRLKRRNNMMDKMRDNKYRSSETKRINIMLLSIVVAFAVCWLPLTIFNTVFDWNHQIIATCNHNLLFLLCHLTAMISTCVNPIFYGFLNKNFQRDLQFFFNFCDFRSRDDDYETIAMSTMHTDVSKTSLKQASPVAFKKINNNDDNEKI

[8] = target: receptors (Bioprint panel) (Homo sapiens, UniProt P28223); settings: read-out: % Inhibition of Control Specific Binding
[9] = target: receptors (Bioprint panel) (Homo sapiens, UniProt P29275); settings: ADENOSINE A2B (h) (antagonist radioligand); 10 μM; read-out: % Inhibition of Control Specific Binding
[10] = target: receptors (Bioprint panel) (Homo sapiens, UniProt P30411); settings: BRADYKININ B2 (h) (agonist radioligand); 10 μM; read-out: % Inhibition of Control Specific Binding
Chain of receptors (Bioprint panel) (Homo sapiens, UniProt P30411) (P30411 whole entry): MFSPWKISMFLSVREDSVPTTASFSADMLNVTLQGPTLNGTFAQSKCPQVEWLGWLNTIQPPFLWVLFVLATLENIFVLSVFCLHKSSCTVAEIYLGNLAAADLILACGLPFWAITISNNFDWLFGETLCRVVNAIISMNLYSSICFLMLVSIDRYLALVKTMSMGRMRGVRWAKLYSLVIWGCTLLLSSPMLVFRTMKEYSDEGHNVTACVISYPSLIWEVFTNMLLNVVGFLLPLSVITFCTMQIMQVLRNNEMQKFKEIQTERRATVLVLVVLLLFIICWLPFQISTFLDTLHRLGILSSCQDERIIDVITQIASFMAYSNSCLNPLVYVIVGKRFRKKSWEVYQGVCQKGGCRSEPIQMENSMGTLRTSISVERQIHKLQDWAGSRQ

[11] = target: receptors (Bioprint panel) (Homo sapiens, UniProt P31645); settings: 5-HT transporter (h) (antagonist radioligand); 10 μM; read-out: % Inhibition of Control Specific Binding
[12] = target: receptors (Bioprint panel) (Homo sapiens, UniProt P32241); settings: […] VPAC1 (VIP1) (h) (agonist radioligand); 10 μM; read-out: % Inhibition of Control Specific Binding
Chain of receptors (Bioprint panel) (Homo sapiens, UniProt P32241) (P32241 31-457): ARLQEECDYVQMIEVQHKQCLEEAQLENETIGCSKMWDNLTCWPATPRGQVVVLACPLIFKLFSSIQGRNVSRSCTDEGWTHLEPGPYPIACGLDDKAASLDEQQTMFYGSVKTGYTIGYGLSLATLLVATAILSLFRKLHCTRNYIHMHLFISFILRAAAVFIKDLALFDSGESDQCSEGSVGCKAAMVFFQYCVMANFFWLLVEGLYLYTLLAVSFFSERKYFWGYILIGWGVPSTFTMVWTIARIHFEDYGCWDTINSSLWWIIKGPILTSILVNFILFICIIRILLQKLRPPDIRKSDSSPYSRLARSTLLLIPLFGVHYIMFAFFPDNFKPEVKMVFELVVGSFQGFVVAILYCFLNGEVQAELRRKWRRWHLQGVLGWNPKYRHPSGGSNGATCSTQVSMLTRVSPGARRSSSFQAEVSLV

[13] = target: receptors (Bioprint panel) (Homo sapiens, UniProt P32245); settings: MELANOCORTIN MC4 (h) (agonist radioligand); 10 μM; read-out: % Inhibition of Control Specific Binding
Chain of receptors (Bioprint panel) (Homo sapiens, UniProt P32245) (P32245 whole entry): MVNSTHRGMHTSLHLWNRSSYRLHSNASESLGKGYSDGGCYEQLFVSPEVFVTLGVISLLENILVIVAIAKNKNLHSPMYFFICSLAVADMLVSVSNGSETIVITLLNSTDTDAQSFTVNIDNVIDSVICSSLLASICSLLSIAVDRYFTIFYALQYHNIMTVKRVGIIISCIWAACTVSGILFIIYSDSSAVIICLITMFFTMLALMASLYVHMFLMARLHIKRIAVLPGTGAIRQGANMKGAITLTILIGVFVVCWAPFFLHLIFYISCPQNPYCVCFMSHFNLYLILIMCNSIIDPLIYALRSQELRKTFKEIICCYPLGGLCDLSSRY

[14] = target: receptors (Bioprint panel) (Homo sapiens, UniProt P34969); settings: read-out: % Inhibition of Control Specific Binding
[15] = target: receptors (Bioprint panel) (Homo sapiens, UniProt P34998); settings: COR[…] FACTOR CRF1 (h) (agonist radioligand); 10 μM; read-out: % Inhibition of Control Specific Binding
Chain of receptors (Bioprint panel) (Homo sapiens, UniProt P34998) (P34998 24-415): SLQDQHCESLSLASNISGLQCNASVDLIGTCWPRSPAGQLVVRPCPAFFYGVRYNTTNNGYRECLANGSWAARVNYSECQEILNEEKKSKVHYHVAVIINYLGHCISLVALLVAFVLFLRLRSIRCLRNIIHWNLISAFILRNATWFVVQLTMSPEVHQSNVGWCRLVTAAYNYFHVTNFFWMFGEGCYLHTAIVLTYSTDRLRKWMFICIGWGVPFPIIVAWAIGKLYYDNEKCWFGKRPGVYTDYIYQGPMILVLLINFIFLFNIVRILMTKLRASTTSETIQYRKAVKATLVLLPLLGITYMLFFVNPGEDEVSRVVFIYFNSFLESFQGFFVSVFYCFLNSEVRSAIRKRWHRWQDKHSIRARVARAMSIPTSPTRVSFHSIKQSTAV

[16] = target: receptors (Bioprint panel) (Homo sapiens, UniProt P37288); settings: VASOPRESSIN V1a (h) (agonist radioligand); 10 μM; read-out: % Inhibition of Control Specific Binding
[17] = target: receptors (Bioprint panel) (Homo sapiens, UniProt P41146); settings: OPIOD & OPIOID-LIKE NOP (ORL1) (h) (agonist radioligand); 10 μM; read-out: % Inhibition of Control Specific Binding
[18] = target: receptors (Bioprint panel) (Homo sapiens, UniProt P43088); settings: […] (h) (agonist radioligand); 10 μM; read-out: % Inhibition of Control Specific Binding
Chain of receptors (Bioprint panel) (Homo sapiens, UniProt P43088) (P43088 whole entry): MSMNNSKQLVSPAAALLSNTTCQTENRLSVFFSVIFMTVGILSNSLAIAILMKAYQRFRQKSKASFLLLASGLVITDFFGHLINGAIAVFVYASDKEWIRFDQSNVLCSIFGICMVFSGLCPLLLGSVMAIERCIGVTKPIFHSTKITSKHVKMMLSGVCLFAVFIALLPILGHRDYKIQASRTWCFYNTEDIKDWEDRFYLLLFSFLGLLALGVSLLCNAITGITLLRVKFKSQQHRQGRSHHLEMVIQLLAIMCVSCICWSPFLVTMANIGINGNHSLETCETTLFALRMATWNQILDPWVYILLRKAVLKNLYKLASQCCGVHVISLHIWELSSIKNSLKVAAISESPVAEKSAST

[19] = target: receptors (Bioprint panel) (Homo sapiens, UniProt P43116); settings: PROSTANOID EP2 (h) (agonist radioligand); 10 μM; read-out: % Inhibition of Control Specific Binding
[20] = target: receptors (Bioprint panel) (Homo sapiens, UniProt P43681); settings: NICOTINIC […] N neuronal alpha 4beta 2 (h) (agonist radioligand); 10 μM; read-out: % Inhibition of Control Specific Binding
[21] = target: receptors (Bioprint panel) (Homo sapiens, UniProt P50052); settings: A[…] AT2 (h) (agonist radioligand); 10 μM; read-out: % Inhibition of Control Specific Binding
[22] = target: receptors (Bioprint panel) (Homo sapiens, UniProt Q15722); settings: read-out: % Inhibition of Control Specific Binding
Chain of receptors (Bioprint panel) (Homo sapiens, UniProt Q15722) (Q15722 whole entry): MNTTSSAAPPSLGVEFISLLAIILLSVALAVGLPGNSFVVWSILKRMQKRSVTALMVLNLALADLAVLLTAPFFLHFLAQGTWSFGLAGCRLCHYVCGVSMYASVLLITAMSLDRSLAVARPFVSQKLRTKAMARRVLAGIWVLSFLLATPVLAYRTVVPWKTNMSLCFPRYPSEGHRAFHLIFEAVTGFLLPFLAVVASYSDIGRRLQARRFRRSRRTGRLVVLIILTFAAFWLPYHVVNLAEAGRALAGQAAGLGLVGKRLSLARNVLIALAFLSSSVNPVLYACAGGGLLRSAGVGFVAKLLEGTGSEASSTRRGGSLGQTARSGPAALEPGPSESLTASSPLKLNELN

[23] = target: receptors (Bioprint panel) (Homo sapiens, UniProt Q9GZV3); settings: choline transporter (CHT1) (h) (antagonist radioligand); 10 μM; read-out: % Inhibition of Control Specific Binding
[24] = target: receptors (Bioprint panel) (Homo sapiens, UniProt Q9H3N8); settings: HISTAMINE H4 (h) (agonist radioligand); 10 μM; read-out: % Inhibition of Control Specific Binding
[25] = target: receptors (Bioprint panel) (Homo sapiens, UniProt Q9UKP6); settings: read-out: % Inhibition of Control Specific Binding
[26] = target: receptors (Bioprint panel) (Homo sapiens, UniProt Q9Y271); settings: read-out: % Inhibition of Control Specific Binding
Chain of receptors (Bioprint panel) (Homo sapiens, UniProt Q9Y271) (Q9Y271 whole entry): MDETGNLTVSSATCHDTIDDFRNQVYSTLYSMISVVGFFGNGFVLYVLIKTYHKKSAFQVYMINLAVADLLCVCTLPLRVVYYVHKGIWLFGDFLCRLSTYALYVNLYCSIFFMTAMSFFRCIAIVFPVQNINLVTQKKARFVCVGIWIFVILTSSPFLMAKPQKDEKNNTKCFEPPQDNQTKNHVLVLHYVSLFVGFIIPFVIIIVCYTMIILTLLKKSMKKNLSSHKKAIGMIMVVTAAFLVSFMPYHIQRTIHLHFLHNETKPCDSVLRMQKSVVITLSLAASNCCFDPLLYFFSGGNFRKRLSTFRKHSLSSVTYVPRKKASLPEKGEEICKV

[27] = target: receptors (Bioprint panel) (Mus musculus, UniProt Q01727); settings: MELANOCORTIN MC1 (agonist radioligand); 10 μM; read-out: % Inhibition of Control Specific Binding
Chain of receptors (Bioprint panel) (Mus musculus, UniProt Q01727) (Q01727 whole entry): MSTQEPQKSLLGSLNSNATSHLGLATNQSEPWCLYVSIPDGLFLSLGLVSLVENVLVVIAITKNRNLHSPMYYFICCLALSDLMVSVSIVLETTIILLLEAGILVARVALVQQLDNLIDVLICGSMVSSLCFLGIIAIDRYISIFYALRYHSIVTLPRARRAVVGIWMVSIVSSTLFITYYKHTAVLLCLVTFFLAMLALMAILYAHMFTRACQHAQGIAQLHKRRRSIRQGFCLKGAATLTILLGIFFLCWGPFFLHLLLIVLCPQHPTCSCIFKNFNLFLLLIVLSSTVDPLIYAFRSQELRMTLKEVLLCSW

[28] = target: receptors (Bioprint panel) (Rattus norvegicus, UniProt P35439); settings: read-out: % Inhibition of Control Specific Binding

## CC(C)=CCC[C@H](CO)[C@@H]1CC[C@@H](C)c2c1cc(C)c(O)c2O [Compound 1, 7,8,18-trihydroxyserrulat-14-ene]
[1]
  inhibition at 10 µM: -12%
[2]
  inhibition at 10 µM: 2%
[3]
  % Inhibition of Control Specific Binding: −9%
[4]
  inhibition at 10 µM: 33%
[5]
  inhibition at 10 µM: 46%
[6]
  inhibition at 10 µM: 6%
[7]
  inhibition at 10 µM: 29%
[8]
  inhibition at 10 µM: 9%
[9]
  inhibition at 10 µM: 8%
[10]
  inhibition at 10 µM: -37%
[11]
  inhibition at 10 µM: 56%
[12]
  inhibition at 10 µM: -9%
[13]
  inhibition at 10 µM: 37%
[14]
  inhibition at 10 µM: 14%
[15]
  inhibition at 10 µM: 34%
[16]
  inhibition at 10 µM: 12%
[17]
  inhibition at 10 µM: -4%
[18]
  inhibition at 10 µM: 54%
[19]
  inhibition at 10 µM: 53%
[20]
  inhibition at 10 µM: -3%
[21]
  inhibition at 10 µM: 54%
[22]
  inhibition at 10 µM: 27%
[23]
  inhibition at 10 µM: -41%
[24]
  inhibition at 10 µM: 23%
[25]
  inhibition at 10 µM: 46%
[26]
  inhibition at 10 µM: 10%
[27]
  inhibition at 10 µM: 11%
[28]
  inhibition at 10 µM: 4%
